# Data from patent US9199962B2, “Substituted azaheterocycles for the treatment of cancer” (Merck Patent GmbH, priority 2011, dated 2015).
# Like-named read-outs stand apart in the source and are kept apart here.
# Target: T1, GST-FAK (N-terminal GST fusion with truncated human FAK (376-1052 (end) amino acids)) (Homo sapiens, UniProt Q05397)
# T1 construct: truncated human FAK (376-1052 (end) amino acids)
# Test: Biochemical enzyme assay for FAK activity (Caliper LC3000 mobility shift)
# Conditions: 100 uM ATP
# Description: 1. Biochemical Enzyme Assays for FAK Activity
# The FAK assays described here are performed on two Caliper Life Sciences systems, the LC3000 and the EZ Reader II. These provide data on enzyme activity via measurement of the relative amounts of phosphorylated or unphosphorylated fluorescently labelled substrate peptide at the end of an enzymatic reaction. These different states of peptide are resolved by applying a potential difference across the sample. The presence of the charged phosphate group on the product (as opposed to the substrate) causes different peptide mobility between the two peptides. This is visualized by excitation of the fluorescent label on the substrate and product peptides and represented as peaks within the analysis software.
# In order to measure inhibitor activity of FAK, inhibitors in the Caliper Life Sciences LC3000, a TTP Mosquito liquid handling instrument is used to place 0.25 ul of the appropriate concentration of inhibitor in 100% DMSO (for a dose response curve calculation) into each well of a 384-well plate. To this reaction components are added to a final volume of 25 ul: • 0.067 ng/ul GST-FAK (N-terminal GST fusion with truncated human FAK (376-1052 (end) amino acids)) • 100 uM ATP • 1 mM DTT • 1 mM MgCl2 • 1 uM substrate peptide (sequence FITC-KGWMEDYDYVHLQGKK-(CONH2)SEQ ID NO: 1)) • 1 mM FERM peptide (sequence NH2-GATQSFIIR-COOH (SEQ ID NO: 2)) • 100 mM HEPES pH 7.5 • 0.015% Brij-35
# The reaction is incubated for 90 min at 25 C, and then stopped by the addition of 70 ul of Stop buffer (100 mM HEPES pH 7.5, 0.015% Brij-35, 10 mM EDTA).
# The plate is read on a Caliper LC 3000 in an Off-Chip mobility shift assay format, using the following parameters for a 12-sipper chip: screening pressure—1.9 psi, upstream voltage—3000, downstream voltage—700. These conditions cause unphosphorylated substrate and phosphorylated product peptide to resolve as separate peaks allowing direct measurement of percentage of conversion of substrate to product. The percent conversion can be plotted against concentration of inhibitor to produce a sigmoid dose response curve, from which an IC50 can be calculated using XLFit for Microsoft Excel.
# T1 sequence (Q05397 376-1052): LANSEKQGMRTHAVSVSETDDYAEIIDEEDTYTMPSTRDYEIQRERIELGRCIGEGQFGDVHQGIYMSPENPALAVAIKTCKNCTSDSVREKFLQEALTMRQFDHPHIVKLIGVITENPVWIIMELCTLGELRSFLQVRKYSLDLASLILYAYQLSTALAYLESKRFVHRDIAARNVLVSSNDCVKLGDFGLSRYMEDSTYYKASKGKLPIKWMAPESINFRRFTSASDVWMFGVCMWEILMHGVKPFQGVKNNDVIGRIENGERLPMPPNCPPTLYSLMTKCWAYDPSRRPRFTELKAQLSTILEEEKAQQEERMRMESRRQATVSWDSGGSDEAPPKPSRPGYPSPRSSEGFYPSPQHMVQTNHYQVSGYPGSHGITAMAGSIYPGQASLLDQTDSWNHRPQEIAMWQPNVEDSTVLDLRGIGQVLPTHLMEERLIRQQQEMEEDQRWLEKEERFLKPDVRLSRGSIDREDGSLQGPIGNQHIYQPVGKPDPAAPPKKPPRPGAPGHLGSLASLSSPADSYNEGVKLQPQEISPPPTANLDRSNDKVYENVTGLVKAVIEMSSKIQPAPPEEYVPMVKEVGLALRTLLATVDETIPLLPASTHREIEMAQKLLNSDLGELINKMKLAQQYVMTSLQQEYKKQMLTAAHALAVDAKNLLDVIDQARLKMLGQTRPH
"IC50 (Table 3, read-out: FAK IC50) [µM]",Compound,also measured
> 10,"c1ccc(CNc2ccnc(-c3cccnc3)n2)cc1 [Compound 139, N-Benzyl-2-pyridin-3-ylpyrimidin-4-amine]",–
> 10,"Cc1cc(NCc2cccc(C(F)(F)F)c2)nc(-c2cccnc2)n1 [Compound 140, 6-Methyl-2-pyridin-3-yl-N-[3-(trifluoromethyl)benzyl]pyrimidin-4-amine]",–
> 10,"Cc1cc(NCc2ccccc2)nc(-c2cccnc2)n1 [Compound 141, N-Benzyl-6-methyl-2-pyridin-3-ylpyrimidin-4-amine]",–
> 10,"Cc1cc(NCc2cccc(F)c2)nc(-c2cccnc2)n1 [Compound 142, N-(3-Fluorobenzyl)-6-methyl-2-pyridin-3-ylpyrimidin-4-amine]",–
> 10,"CNCC(Nc1ccnc(-c2cccnc2)n1)c1ccccc1 (centres unmarked) [Compound 143, N2-Methyl-1-phenyl-N1-(2-pyridin-3-ylpyrimidin-4-yl)ethane-1,2-diamine]",–
> 10,"CNCC(Nc1ccnc(-c2cccnc2N)n1)c1ccccc1 (centres unmarked) [Compound 144, N1-[2-(2-Aminopyridin-3-yl)pyrimidin-4-yl]-N2-methyl-1-phenylethane-1,2-diamine]",–
> 10,"CNC[C@@H](Nc1ccnc(-c2cccnc2N)n1)c1cccc(F)c1 [Compound 145, (S)-N1-[2-(2-Amino-pyridin-3-yl)-pyrimidin-4-yl]-1-(3-fluoro-phenyl)-N2-methyl-ethane-1,2-diamine]",–
> 10,"CNC[C@@H](Nc1ccnc(-c2cccnc2N)n1)c1ccccc1 [Compound 146, (S)-N1-[2-(2-Amino-pyridin-3-yl)-pyrimidin-4-yl]-N2-methyl-1-phenyl-ethane-1,2-diamine]",–
> 10,"CNC[C@H](Nc1ccnc(-c2cccnc2N)n1)c1ccccc1 [Compound 147, (R)-N1-[2-(2-Amino-pyridin-3-yl)-pyrimidin-4-yl]-N2-methyl-1-phenyl-ethane-1,2-diamine]",–

# The remaining lines, values behind:
Compound,"IC50 (Table 3, read-out: FAK IC50) [µM]",also measured
"Nc1ncccc1-c1nccc(NCc2ncccc2C(F)(F)F)n1 [Compound 100, 2-(2-Aminopyridin-3-yl)-N-{[3-(trifluoromethyl)pyridin-2-yl]methyl}pyrimidin-4-amine]",1 to 10,–
"Cc1ccc(CNc2ccnc(-c3cccnc3N)n2)c(F)c1 [Compound 101, 2-(2-Aminopyridin-3-yl)-N-(2-fluoro-4-methylbenzyl)pyrimidin-4-amine]",1 to 10,–
"Nc1ncccc1-c1nccc(NCc2cc(F)ccc2C(F)(F)F)n1 [Compound 102, 2-(2-Aminopyridin-3-yl)-N-[5-fluoro-2-(trifluoromethyl)benzyl]pyrimidin-4-amine]",1 to 10,–
"Nc1ncccc1-c1nccc(NCc2cnccc2C(F)(F)F)n1 [Compound 103, 2-(2-Aminopyridin-3-yl)-N-{[4-(trifluoromethyl)pyridin-3-yl]methyl}pyrimidin-4-amine]",1 to 10,–
"Nc1ncccc1-c1cccc(NCc2ccccc2C(F)(F)F)c1 [Compound 104, 3-(3-{[2-(Trifluoromethyl)benzyl]amino}phenyl)pyridin-2-amine]",> 10,–
"Nc1ncccc1-c1cccc(NCc2ccccc2F)c1 [Compound 105, 3-{3-[(2-Fluorobenzyl)amino]phenyl}pyridin-2-amine]",> 10,–
"Nc1ncccc1-c1cc(NCc2ccccc2F)ccn1 [Compound 106, N4-(2-Fluorobenzyl)-2,3′-bipyridine-2′,4-diamine]",> 10,–
"Nc1ncccc1-c1nccc(NCc2ccc(Cl)cc2C(F)(F)F)n1 [Compound 109, 2-(2-Aminopyridin-3-yl)-N-[4-chloro-2-(trifluoromethyl)benzyl]pyrimidin-4-amine]",0.1 to 1,–
"Nc1ncccc1-c1nccc(NCc2c(F)cccc2C(F)(F)F)n1 [Compound 111, 2-(2-Aminopyridin-3-yl)-N-[2-fluoro-6-(trifluoromethyl)benzyl]pyrimidin-4-amine]",1 to 10,–
"Nc1ncccc1-c1cc(NCc2ccccc2C(F)(F)F)ccn1 [Compound 113, N4-[2-(trifluoromethyl)benzyl]-2,3′-bipyridine-2′,4-diamine]",1 to 10,–
"Nc1ncccc1-c1nccc(NC2CCOc3ccccc32)n1 (centres unmarked) [Compound 116, 2-(2-Aminopyridin-3-yl)-N-(3,4-dihydro-2H-chromen-4-yl)pyrimidin-4-amine]",> 10,–
"Nc1ncccc1-c1nccc(NCc2cccc3nsnc23)n1 [Compound 117, 2-(2-Aminopyridin-3-yl)-N-(2,1,3-benzothiadiazol-4-ylmethyl)pyrimidin-4-amine]",0.1 to 1,–
"Nc1ncccc1-c1nccc(N2Cc3ccccc3C2=O)n1 [Compound 120, 2-[2-(2-Aminopyridin-3-yl)pyrimidin-4-yl]isoindolin-1-one]",> 10,–
"Nc1ncccc1-c1nccc(NCc2cccnc2)n1 [Compound 121, 2-(2-Aminopyridin-3-yl)-N-(pyridin-3-ylmethyl)pyrimidin-4-amine]",> 10,–
"Nc1ncccc1-c1nccc(NCc2cccc3c2OCO3)n1 [Compound 122, 2-(2-Aminopyridin-3-yl)-N-(1,3-benzodioxol-4-ylmethyl)pyrimidin-4-amine]",0.1 to 1,–
"Nc1ncccc1-c1nccc(NCc2ccncc2)n1 [Compound 128, 2-(2-Aminopyridin-3-yl)-N-(pyridin-4-ylmethyl)pyrimidin-4-amine]",> 10,–
"FC(F)(F)c1cncc(-c2nccc(NCc3cccc4nsnc34)n2)c1 [Compound 133, N-(2,1,3-Benzothiadiazol-4-ylmethyl)-2-[5-(trifluoromethyl)pyridin-3-yl]pyrimidin-4-amine]",< 0.1,–
"Nc1ncccc1-c1nccc(NCc2cccc3ccnn23)n1 [Compound 135, 2-(2-Aminopyridin-3-yl)-N-(pyrazolo[1,5-a]pyridin-7-ylmethyl)pyrimidin-4-amine]",> 10,–
"Nc1ncc(C(F)(F)F)cc1-c1nccc(NCc2ccccc2C(F)(F)F)n1 [Compound 136, 2-[2-Amino-5-(trifluoromethyl)pyridin-3-yl]-N-[2-(trifluoromethyl)benzyl]pyrimidin-4-amine]",< 0.1,–
"Nc1ncccc1-c1nccc(NCc2cccnc2C(F)(F)F)n1 [Compound 137, 2-(2-Aminopyridin-3-yl)-N-{[2-(trifluoromethyl)pyridin-3-yl]methyl}pyrimidin-4-amine]",1 to 10,–
"C[C@H](Nc1ccnc(-c2cccnc2N)n1)c1ccccc1C(F)(F)F [Compound 138, 2-(2-Aminopyridin-3-yl)-N-{(1S)-1-[2-(trifluoromethyl)phenyl]ethyl}pyrimidin-4-amine]",1 to 10,–
"N#Cc1cncc(-c2nccc(NCc3ccc(F)cc3F)n2)c1 [Compound 180, 5-[4-[(2,4-difluorophenyl)methylamino]pyrimidin-2-yl]pyridine-3-carbonitrile]",–,"IC50 (Table 4, read-out: IC50 FAK): 0.1 to 1 µM"
"CS(=O)(=O)n1cc(Nc2ccnc(-c3cncc(C(F)(F)F)c3)n2)cn1 [Compound 182, N-(1-methylsulfonylpyrazol-4-yl)-2-[5-(trifluoromethyl)-3-pyridyl]pyrimidin-4-amine]",–,"IC50 (Table 4, read-out: IC50 FAK): 0.1 to 1 µM"
"Cc1ccccc1CNc1ccnc(-c2cncc(C(F)(F)F)c2)n1 [Compound 186, (2-Methyl-benzyl)-[2-(5-trifluoromethyl-pyridin-3-yl)-pyrimidin-4-yl]-amine]",–,"IC50 (Table 5, read-out: FAK IC50): 0.1 to 1 µM"
"COc1cncc(-c2nccc(NCCc3ccccc3)n2)c1 [Compound 187, [2-(5-Methoxy-pyridin-3-yl)-pyrimidin-4-yl]-phenethyl-amine]",–,"IC50 (Table 5, read-out: FAK IC50): > 10 µM"
"CC(=O)NCCNC(=O)c1cc(NCc2ncccc2F)nc(-c2cncc(C(F)(F)F)c2)n1 [Compound 189, 6-[(3-Fluoro-pyridin-2-ylmethyl)-amino]-2-(5-trifluoromethyl-pyridin-3-yl)-pyrimidine-4-carboxylic acid (2-acetylamino-ethyl)-amide]",–,"IC50 (Table 5, read-out: FAK IC50): 0.1 to 1 µM"
"NC(=O)CNC(=O)c1cc(NCc2ncccc2F)nc(-c2cncc(C(F)(F)F)c2)n1 [Compound 190, 6-[(3-Fluoro-pyridin-2-ylmethyl)-amino]-2-(5-trifluoromethyl-pyridin-3-yl)-pyrimidine-4-carboxylic acid carbamoylmethyl-amide]",–,"IC50 (Table 5, read-out: FAK IC50): 0.1 to 1 µM"
"FC(F)(F)c1cccc(CCNc2ccnc(-c3cncc(C(F)(F)F)c3)n2)c1 [Compound 191, [2-(3-Trifluoromethyl-phenyl)-ethyl]-[2-(5-trifluoromethyl-pyridin-3-yl)-pyrimidin-4-yl]-amine]",–,"IC50 (Table 5, read-out: FAK IC50): 1 to 10 µM"
"COc1cncc(-c2nccc(NCCc3ccc(F)cc3)n2)c1 [Compound 192, [2-(4-Fluoro-phenyl)-ethyl]-[2-(5-methoxy-pyridin-3-yl)-pyrimidin-4-yl]-amine]",–,"IC50 (Table 5, read-out: FAK IC50): 1 to 10 µM"
